Article PMC6294118 (Pharmaceutical research, 2018)

Tests used:
[1] = cited from earlier work; for Cmax port,unbound (maximal unbound plasma concentration in the portal vein): in vivo
hOCT1 [2] = biological target: T1, hOCT1 (Homo sapiens, UniProt O15245); test: cell-based
T1 sequence (O15245 1-554): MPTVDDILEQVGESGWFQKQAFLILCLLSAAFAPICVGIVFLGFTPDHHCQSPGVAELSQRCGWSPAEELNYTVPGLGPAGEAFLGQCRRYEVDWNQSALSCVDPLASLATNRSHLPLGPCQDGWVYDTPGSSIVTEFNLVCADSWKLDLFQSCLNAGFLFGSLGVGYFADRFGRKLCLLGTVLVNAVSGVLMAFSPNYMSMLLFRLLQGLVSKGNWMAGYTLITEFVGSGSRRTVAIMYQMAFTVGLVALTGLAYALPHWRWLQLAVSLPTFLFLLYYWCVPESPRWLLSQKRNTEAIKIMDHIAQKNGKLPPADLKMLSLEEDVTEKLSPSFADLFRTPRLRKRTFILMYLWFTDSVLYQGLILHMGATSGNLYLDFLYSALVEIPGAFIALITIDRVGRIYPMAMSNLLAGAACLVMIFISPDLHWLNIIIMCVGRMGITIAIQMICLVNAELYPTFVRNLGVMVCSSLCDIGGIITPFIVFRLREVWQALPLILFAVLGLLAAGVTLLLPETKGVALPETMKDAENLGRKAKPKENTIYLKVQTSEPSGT

hOCT1 [3] = biological target: T1, hOCT1; details: for Cmax,unbound/IC50 (hOCT1): ratio of literature Cmax,unbound to hOCT1 IC50; for Cmax,unbound/IC50 (hOCT1, second ratio column): ratio to hOCT1 IC50, the values fit Cmax port,unbound/IC50
hOCT2 = biological target: T2, hOCT2 (Homo sapiens, UniProt O15244); test: Inhibition of hOCT2-mediated morphine uptake in HEK293-hOCT2 cells; assay type: cell-based; details: for Cmax,unbound/IC50 (hOCT2): ratio of literature Cmax,unbound to hOCT2 IC50
T2 sequence (O15244 1-555): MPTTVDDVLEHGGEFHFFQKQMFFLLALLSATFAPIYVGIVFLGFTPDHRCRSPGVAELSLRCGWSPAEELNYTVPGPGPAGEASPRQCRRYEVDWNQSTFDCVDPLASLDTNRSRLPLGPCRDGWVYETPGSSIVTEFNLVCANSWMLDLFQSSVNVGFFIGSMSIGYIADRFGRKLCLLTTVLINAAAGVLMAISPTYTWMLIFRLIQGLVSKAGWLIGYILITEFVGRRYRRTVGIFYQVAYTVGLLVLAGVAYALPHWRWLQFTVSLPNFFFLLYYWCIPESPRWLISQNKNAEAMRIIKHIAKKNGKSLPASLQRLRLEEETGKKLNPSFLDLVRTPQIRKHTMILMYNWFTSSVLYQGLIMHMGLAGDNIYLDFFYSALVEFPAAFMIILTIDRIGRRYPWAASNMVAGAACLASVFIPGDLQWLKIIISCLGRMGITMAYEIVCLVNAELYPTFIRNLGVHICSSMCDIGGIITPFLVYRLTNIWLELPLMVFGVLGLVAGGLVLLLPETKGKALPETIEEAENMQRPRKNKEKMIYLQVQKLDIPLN

Structure (SMILES): CN(C)CCCN1c2ccccc2CCc2ccccc21 [Imipramine, imipramine]
- Cmax port,unbound (maximal unbound plasma concentration in the portal vein) [1]: 4500 nM
- IC50 (hOCT1 [2]): 4030 ± 1620 nM

Structure (SMILES): CN(C)CCC=C1c2ccccc2CCc2ccccc21 [Amitriptyline, amitriptyline]
- Cmax port,unbound (maximal unbound plasma concentration in the portal vein) [1]: 4300 nM
- Cmax,unbound/IC50 (hOCT1) (hOCT1 [3]): 0.005
- Cmax,unbound/IC50 (hOCT1, second ratio column) (hOCT1 [3]): 2.28
- IC50 (hOCT2): 410 ± 50 nM
- Cmax,unbound/IC50 (hOCT2) (hOCT2): 0.02
- IC50 (hOCT1 [2]): 1890 ± 770 nM

Structure (SMILES): Cc1nccn1CC1CCc2c(c3ccccc3n2C)C1=O (stereo not drawn) [Ondansetron, ondansetron]
- Cmax port,unbound (maximal unbound plasma concentration in the portal vein) [1]: 80 nM
- IC50 (hOCT1 [2]): 270 ± 100 nM

Structure (SMILES): CNCCC(Oc1ccc(C(F)(F)F)cc1)c1ccccc1 (stereo not drawn) [Fluoxetine, fluoxetine]
- Cmax port,unbound (maximal unbound plasma concentration in the portal vein) [1]: 700 nM
- Cmax,unbound/IC50 (hOCT1) (hOCT1 [3]): 0.001
- Cmax,unbound/IC50 (hOCT1, second ratio column) (hOCT1 [3]): 0.08
- IC50 (hOCT2): 3320 ± 760 nM
- Cmax,unbound/IC50 (hOCT2) (hOCT2): 0.003
- IC50 (hOCT1 [2]): 9060 ± 3240 nM

Structure (SMILES): CCc1c2c(nc3ccc(OC(=O)N4CCC(N5CCCCC5)CC4)cc13)-c1cc3c(c(=O)n1C2)COC(=O)[C@]3(O)CC [Irinotecan, irinotecan]
- IC50 (hOCT1 [2]): 1360 ± 430 nM

Structure (SMILES): CN1CC[C@]23c4c5ccc(O)c4O[C@H]2[C@@H](O)C=C[C@H]3[C@H]1C5 [morphine]
- Fraction of dose excreted as unchanged morphine in urine [1]: approximately 10%
